The record followed here is patent US11236106B2, “Cycloalkane-1,3-diamine derivative” (Daiichi Sankyo Company, Limited, priority 2018, dated 2022).

Structures can show the parent of a compound that is named as a salt. Where two headings read alike, the source gives them in different places.

The test system of one experiment is K562 cells. Kind of experiment: cells. The note with it: Homo sapiens.
The subject of the next experiment is MV-4-11 cells. Nature of the experiment: cells. The note with it: Homo sapiens.
In a further experiment the test system is MOLM-13 cells. Kind of experiment: cells. The note with it: Homo sapiens.
In experiment [1] the target is T1, menin and MLL (menin, Flag tagged; biotinylated MLL1 peptide 1-46aa) (Homo sapiens, UniProt O00255).
T1 sequence (O00255 1-610): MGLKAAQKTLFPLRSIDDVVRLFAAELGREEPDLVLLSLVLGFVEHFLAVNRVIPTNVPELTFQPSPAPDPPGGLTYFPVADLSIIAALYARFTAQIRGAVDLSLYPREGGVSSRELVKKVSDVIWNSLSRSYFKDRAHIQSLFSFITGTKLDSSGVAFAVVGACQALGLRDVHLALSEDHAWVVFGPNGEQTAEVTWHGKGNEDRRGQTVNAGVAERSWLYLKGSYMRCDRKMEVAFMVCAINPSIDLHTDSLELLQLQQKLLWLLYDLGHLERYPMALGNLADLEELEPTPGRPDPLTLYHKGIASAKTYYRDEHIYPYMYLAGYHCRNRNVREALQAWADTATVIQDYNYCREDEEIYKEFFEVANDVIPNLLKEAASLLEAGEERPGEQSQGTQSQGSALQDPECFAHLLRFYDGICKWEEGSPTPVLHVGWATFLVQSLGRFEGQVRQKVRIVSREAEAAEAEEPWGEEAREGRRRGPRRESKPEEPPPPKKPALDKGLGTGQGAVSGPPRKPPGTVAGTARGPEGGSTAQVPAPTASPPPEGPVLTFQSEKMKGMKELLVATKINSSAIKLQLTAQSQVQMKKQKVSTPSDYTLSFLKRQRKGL
Nature of the experiment: biochemical.
Protocol: Then, the fluorescence signal by AlphaLISA (registered trademark, PerkinElmer Co., Ltd.) was measured using a plate reader (PerkinElmer Co., Ltd., EnVisionXcite).

Setting [2] is: K562, 72 h, read-out: GI50 (μM) Day3 K562.
The mark [3] stands for this setting: K562, 168 h, read-out: GI50 (μM) Day7 K562.
Setting [4] is: MV4-11, 72 h, read-out: GI50 (μM) Day3 MV4;11.
[5] abbreviates: MV4-11, 168 h, read-out: GI50 (μM) Day7 MV4;11.
Setting [6] is: MOLM-13, 72 h, read-out: GI50 (μM) Day3 MOLM-13.
[7] abbreviates: MOLM-13, 168 h, read-out: GI50 (μM) Day7 MOLM-13.
The mark [8] stands for this setting: cell free IC50 (nM), 1 nM menin, 10 nM biotinylated MLL1 peptide, AlphaLISA.
[9] abbreviates: IC50, binding inhibitory activity between menin and MLL, AlphaLISA, 1 nM menin, 10 nM biotinylated MLL1 peptide.

Protocol for K562 cells: (§1) RPMI1640 medium supplemented with 10% FBS was used as a culture medium for each cells (MV-4-11, MOLM-13 cells, human AML cells, K562 cells, human CML cells). […] The prepared drug-containing plate was stored at −30° C. until use, and thawed before use.
(§2) The suspension of each cells was prepared with 10% FBS RPMI1640 culture medium so as to be 1000 cells/mL (K562) or 10000 cells/mL (MV-4-11, MOLM-13), and seeded on the drug-containing plate (40 μL/well) (day 0). The cells were cultured for additional 3 or 7 days. ATP measurement reagent (CellTiter-Glo (registered trademark, Promega Corporation) 2.0 Assay, model number G9242, Promega Corporation) was added to each well at 10 μL/well, on the day of the drug addition (day 0) and 3 days (day 3) or 7 days (day 7) after the drug addition. After affixing a black sticker on the bottom surface, the mixture was stirred using a microplate mixing deaeration machine (model name, Weltornado FK-62, Sakaki Dengyo Co., Ltd.) (stirring conditions, revolution 9, rotation 7, time 12).
(§3) The cell growth of the drug-added group from day 0 to day 3 or day 7 was calculated as T/C %, when the cell growth of the drug-free group was considered as 100%.
Protocol for MOLM-13 cells: as §1, §2, §3
Protocol for MV-4-11 cells: as §1, §2, §3

`COc1cncc(-c2ccc(CN[C@@H]3C[C@H](Nc4ncnc5sc(CC(F)(F)F)cc45)C[C@H](OC)C3)cc2)c1` (single isomer, unassigned) [Example 18A, Hydrochloride]: the GI50 amounted to 5.7 µM in the experiment on K562 cells (setting [2]); 5.01 µM in the experiment with K562 cells (setting [3]); 0.26 µM with MV-4-11 cells (setting [4]); 0.131 µM in the experiment with MV-4-11 cells (setting [5]); 2.83 µM in the experiment with MOLM-13 cells (setting [6]); 0.448 µM in the experiment with MOLM-13 cells (setting [7]). Besides, the IC50 in experiment [1] (setting [8]) was 10.3 nM.
Take `CC(N[C@H]1CC[C@@H](N(C)c2ncnc3sc(CC(F)(F)F)cc23)C1)c1ccccc1` (mixture of isomers) [Example 33, (1R,3S)-N^1-methyl-N^3-(1-phenylethyl)-N^1-[6-(2,2,2-trifluoroethyl)thieno[2,3-d]pyrimidin-4-yl]cyclopentane-1,3-diamine (diastereomer mixture)]: the values for the GI50 with K562 cells (setting [2]), in the experiment on MV-4-11 cells (setting [4]) and with MOLM-13 cells (setting [6]) were 6.44 µM, 5.22 µM and 4.82 µM, respectively. In experiment [1] (setting [8]), the IC50 was determined as 2420 nM.
For `COc1cncc(-c2ccc(CN[C@@H]3C[C@H](Nc4ncnc5sc(CC(F)(F)F)cc45)C[C@H](c4ncco4)C3)cc2)c1` (single isomer, unassigned) [Example 19A, Hydrochloride], the GI50 in the experiment on K562 cells (setting [2]) was determined as 5.51 µM; in the experiment with K562 cells (setting [3]) it was 5.39 µM; in the experiment with MV-4-11 cells (setting [4]) it was 0.489 µM; in the experiment on MV-4-11 cells (setting [5]), 0.295 µM; with MOLM-13 cells (setting [6]), 3.2 µM; in the experiment on MOLM-13 cells (setting [7]), 0.906 µM. Moreover, in experiment [1] (setting [8]), the IC50 came to 33.5 nM.
`COc1cncc(-c2ccc(CN[C@H]3C[C@@H](Nc4ncnc5sc(CC(F)(F)F)cc45)C[C@@H](c4ncco4)C3)cc2)c1` (single isomer, unassigned) [Example 19B, Hydrochloride]: the GI50 in the experiment on K562 cells (setting [2]) is 5.45 µM; in the experiment on K562 cells (setting [3]) it was 5.41 µM; in the experiment on MV-4-11 cells (setting [4]) it was 3.18 µM; with MV-4-11 cells (setting [5]), 2.6 µM; with MOLM-13 cells (setting [6]), 4.03 µM; with MOLM-13 cells (setting [7]), 5.75 µM. For the same molecule, in experiment [1] (setting [8]), the IC50 stood at 1810 nM.
As for `COc1cncc(-c2ccc(CN[C@H]3C[C@@H](Nc4ncnc5sc(CC(F)(F)F)cc45)C[C@@H](OC)C3)cc2)c1` (single isomer, unassigned) [Example 18B, Hydrochloride], the GI50 in the experiment with K562 cells (setting [2]) is 5.18 µM; in the experiment with K562 cells (setting [3]), 4.71 µM; with MV-4-11 cells (setting [4]), 2.16 µM; with MV-4-11 cells (setting [5]), 1.47 µM; with MOLM-13 cells (setting [6]) it was 3.08 µM; with MOLM-13 cells (setting [7]), 3.97 µM. Also, the IC50 in experiment [1] (setting [8]) amounted to 182 nM.
Take `COc1cc(-c2ccc(CN[C@H]3C[C@@H](O)[C@@H](N(C)c4ncncc4Oc4ccc(F)c(F)c4C(=O)N(C(C)C)C(C)C)C3)cc2)nnc1OC` [Example 104, 6-[(4-{[(1S,2R,4R)-4-({[4-(5,6-dimethoxypyridazin-3-yl)phenyl]methyl}amino)-2-hydroxycyclopentyl](methyl)amino}pyrimidin-5-yl)oxy]-2,3-difluoro-N,N-di(propan-2-yl)benzamide hydrochloride]: the GI50 was > 5 µM in the experiment with K562 cells (K562, 72 h, read-out: GI50, cell growth inhibitory activity, K562, day 3); > 5 µM in the experiment with K562 cells (K562, 168 h, read-out: GI50, cell growth inhibitory activity, K562, day 7); 0.097 µM in the experiment on MV-4-11 cells (MV4-11, 72 h, read-out: GI50, cell growth inhibitory activity, MV-4-11, day 3); 0.066 µM with MV-4-11 cells (MV4-11, 168 h, read-out: GI50, cell growth inhibitory activity, MV-4-11, day 7); 0.7 µM in the experiment with MOLM-13 cells (MOLM-13, 72 h, read-out: GI50, cell growth inhibitory activity, MOLM-13, day 3); 0.187 µM with MOLM-13 cells (MOLM-13, 168 h, read-out: GI50, cell growth inhibitory activity, MOLM-13, day 7). In experiment [1] (setting [9]), the IC50 was 6.3 nM.
`COc1ncc(-c2ccc(CN[C@H]3CC[C@@H](N(C)c4ncnc5sc(CC(F)(F)F)cc45)C3)cc2)s1` [Example 130, (1R,3S)—N^3-{[4-(2-methoxy-1,3-thiazol-5-yl)phenyl]methyl}-N^1-methyl-N^1-[6-(2,2,2-trifluoroethyl)thieno[2,3-d]pyrimidin-4-yl]cyclopentane-1,3-diamine Hydrochloride] displayed an IC50 in experiment [1] (setting [9]) of 6.5 nM.
As to `COc1cc(-c2ccc(CN[C@H]3C[C@@H](O)[C@@H](N(C)c4ncncc4Oc4ccc(F)cc4-c4cncnc4C(C)C)C3)cc2)nnc1OC` [Example 100, (1R,2S,4R)-4-({[4-(5,6-dimethoxypyridazin-3-yl)phenyl]methyl}amino)-2-[(5-{4-fluoro-2-[4-(propan-2-yl)pyrimidin-5-yl]phenoxy}pyrimidin-4-yl)(methyl)amino]cyclopentan-1-ol hydrochloride], in experiment [1] (setting [9]), the IC50 amounted to 2.5 nM.
For the molecule `N#Cc1cc2cc(CN[C@@H]3CC[C@@H](Nc4ncnc5sc(CC(F)(F)F)cc45)C3)ccc2[nH]1` [Example 1, 5-({[(1R,3R)-3-{[6-(2,2,2-trifluoroethyl)thieno[2,3-d]pyrimidin-4-yl]amino}cyclopentyl]amino}methyl)-1H-indole-2-carbonitrile Hydrochloride], the IC50 in experiment [1] (setting [8]) amounted to 494 nM.
Regarding `COc1nc(N(C)[C@H]2C[C@@H](NCc3ccc(-c4cnc(CO)c(OC)c4)cc3)C[C@H]2O)c2cc(CC(F)(F)F)sc2n1` [Example 112, (1R,2S,4R)-4-[({4-[6-(hydroxymethyl)-5-methoxypyridin-3-yl]phenyl}methyl)amino]-2-{[2-methoxy-6-(2,2,2-trifluoroethyl)thieno[2,3-d]pyrimidin-4-yl](methyl)amino}cyclopentan-1-ol hydrochloride], the IC50 in experiment [1] (setting [9]) amounted to 0.8 nM.
The same measure, in the same setting: the same measure for `COc1cc(-c2ccc(CN[C@H]3C[C@@H](O)[C@@H](N(C)c4ncnc5sc(CC(F)(F)F)cc45)C3)cc2)cnc1C(F)(F)F` [Example 88, (1R,2S,4R)-4-[({4-[5-methoxy-6-(trifluoromethyl)pyridin-3-yl]phenyl}methyl)amino]-2-{methyl[6-(2,2,2-trifluoroethyl)thieno[2,3-d]pyrimidin-4-yl]amino}cyclopentan-1-ol hydrochloride]: 27.8 nM.
Take `COc1cncc(-c2ccc(CN[C@@H]3C[C@H](N(C)c4ncnc5sc(CC(F)(F)F)cc45)[C@@H](O)[C@H]3O)cc2)c1` [Example 20B, (1R,2S,3R,5S)-3-({[4-(5-methoxypyridin-3-yl)phenyl]methyl}amino)-5-{methyl[6-(2,2,2-trifluoroethyl)thieno[2,3-d]pyrimidin-4-yl]amino}cyclopentane-1,2-diol Hydrochloride]: the IC50 in experiment [1] (setting [8]) was 16.4 nM. That is a double-digit nanomolar value.
In turn, `CNc1nc(N(C)[C@H]2C[C@@H](NCc3ccc(-c4cnc(OC)c(OC)c4)cc3)C[C@H]2O)c2cc(CC(F)(F)F)sc2n1` [Example 73, (1R,2S,4R)-4-({[4-(5,6-dimethoxypyridin-3-yl)phenyl]methyl}amino)-2-{methyl[2-(methylamino)-6-(2,2,2-trifluoroethyl)thieno[2,3-d]pyrimidin-4-yl]amino}cyclopentan-1-ol hydrochloride] gave an IC50 in experiment [1] (setting [9]) of 6.5 nM.
For the molecule `CN(c1nc(N)nc2sc(CC(F)(F)F)cc12)[C@H]1C[C@@H](NCc2ccc(-n3ccnc3)cc2)C[C@H]1O` [Example 21, (1R,2S,4R)-2-{[2-amino-6-(2,2,2-trifluoroethyl)thieno[2,3-d]pyrimidin-4-yl](methyl)amino}-4-({[4-(1H-imidazol-1-yl)phenyl]methyl}amino)cyclopentan-1-ol Hydrochloride], the IC50 in experiment [1] (setting [8]) was found to be 7 nM.
As to `COc1cncc(-c2ccc(CN[C@@H]3C[C@H](N(C)c4ncnc5sc(CC(F)(F)F)cc45)C[C@H]3O)cc2)c1` [Example 50, (1R,2R,4S)-2-({[4-(5-methoxypyridin-3-yl)phenyl]methyl}amino)-4-{methyl[6-(2,2,2-trifluoroethyl)thieno[2,3-d]pyrimidin-4-yl]amino}cyclopentan-1-ol hydrochloride], 9.7 nM corresponded to half-maximal inhibition in experiment [1] (IC50).

The term GI50 denotes the concentration at which growth is held to half of that of the control. Usually IC50 stands for the midpoint of a concentration-inhibition curve.
